Data taken from publication PMC4619123 (Virology, 2015).

Target: JAK1 (Homo sapiens, UniProt P23458)
Test: ADP-Glo luminescent kinase assay, recombinant JAK1, Poly E4Y1 substrate, […] ATP
Format: biochemical

Chain of JAK1 (P23458 whole entry): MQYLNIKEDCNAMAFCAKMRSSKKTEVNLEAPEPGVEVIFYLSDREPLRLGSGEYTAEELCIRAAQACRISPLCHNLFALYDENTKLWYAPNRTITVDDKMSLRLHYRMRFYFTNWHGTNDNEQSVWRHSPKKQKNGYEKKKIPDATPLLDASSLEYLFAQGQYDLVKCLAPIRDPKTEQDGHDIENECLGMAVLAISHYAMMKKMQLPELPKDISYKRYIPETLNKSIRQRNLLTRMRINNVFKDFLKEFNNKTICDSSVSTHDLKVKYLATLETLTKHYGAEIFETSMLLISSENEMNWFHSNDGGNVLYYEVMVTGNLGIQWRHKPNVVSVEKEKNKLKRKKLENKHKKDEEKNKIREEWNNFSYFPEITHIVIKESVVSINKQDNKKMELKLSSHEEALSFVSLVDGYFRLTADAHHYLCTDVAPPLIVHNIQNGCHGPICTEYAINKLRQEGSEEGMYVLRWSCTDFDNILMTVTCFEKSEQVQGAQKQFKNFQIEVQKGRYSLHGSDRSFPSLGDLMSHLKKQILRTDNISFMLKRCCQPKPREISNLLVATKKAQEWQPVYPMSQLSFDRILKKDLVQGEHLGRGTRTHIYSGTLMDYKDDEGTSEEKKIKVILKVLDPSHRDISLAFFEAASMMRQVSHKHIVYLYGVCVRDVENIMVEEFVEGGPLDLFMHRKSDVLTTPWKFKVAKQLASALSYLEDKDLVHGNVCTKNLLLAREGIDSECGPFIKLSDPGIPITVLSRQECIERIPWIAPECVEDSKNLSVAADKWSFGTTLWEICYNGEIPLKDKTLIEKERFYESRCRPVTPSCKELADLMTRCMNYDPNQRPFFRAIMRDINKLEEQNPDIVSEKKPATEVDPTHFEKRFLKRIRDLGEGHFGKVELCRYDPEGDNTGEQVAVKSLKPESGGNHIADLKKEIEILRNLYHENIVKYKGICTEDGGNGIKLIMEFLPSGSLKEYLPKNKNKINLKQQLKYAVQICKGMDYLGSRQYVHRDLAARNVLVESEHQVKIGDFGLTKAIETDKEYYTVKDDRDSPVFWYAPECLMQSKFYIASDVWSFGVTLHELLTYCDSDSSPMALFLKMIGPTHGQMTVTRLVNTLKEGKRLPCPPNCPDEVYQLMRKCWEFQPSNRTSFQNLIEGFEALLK

NC(=O)Nc1sc(-c2ccc(F)cc2)cc1C(N)=O [TPCA-1, 2-[(aminocarbonyl)amino]-5-(4-fluorophenyl)-3-thiophenecarboxamide]
IC50: 43.8 nM
